Values quoted from earlier work in patent publication US20260216238A1, “TETRATHIOMOLYBDIC ACID FOR USE IN TREATING COPPER METABOLISM-ASSOCIATED DISEASES OR DISORDERS (WILSON DISEASE)” (Alexion Pharmaceuticals, Inc., priority 2023, published 2026).

System: patients with Wilson disease (WD)
Settings: cited from earlier work; for patients with worsening of neurological symptoms on initiation of treatment: in vivo

SMILES	patients with severe side effects requiring drug withdrawal (Schilsky et al., 2022)	patients with worsening of neurological symptoms on initiation of treatment	patients with gastric irritation or gastritis (Schilsky et al., 2022)	hepatic treatment failure (long-term follow-up (Weiss et al., 2011))
CC(C)(S)[C@@H](N)C(=O)O [penicillamine, (2S)-2-amino-3-methyl-3-sulfanylbutanoic acid]	approximately 30%	approximately 25%	–	–
NCCNCCNCCN [trientine, N′-[2-(2-aminoethylamino)ethyl]ethane-1,2-diamine]	–	approximately 25%	–	–
[Zn] [zinc]	–	–	~ ⅓	14/88
